Marks after values point to notes of the source that are not given here.
What was measured:
[1] = test system: 5-HT1d; experiment: functional assay; type: cell-based; conditions: 5-H 1d
[2] = biological target: T1, 5-HT-2c receptor (Homo sapiens, UniProt P28335); experiment: receptor binding assay, radioligand 3H-mesulergine, HEK-293 cells; conditions: 5-HT2C
T1 construct: expressed in transfected cells; host or cells: HEK-293
T1 sequence (P28335 33-458): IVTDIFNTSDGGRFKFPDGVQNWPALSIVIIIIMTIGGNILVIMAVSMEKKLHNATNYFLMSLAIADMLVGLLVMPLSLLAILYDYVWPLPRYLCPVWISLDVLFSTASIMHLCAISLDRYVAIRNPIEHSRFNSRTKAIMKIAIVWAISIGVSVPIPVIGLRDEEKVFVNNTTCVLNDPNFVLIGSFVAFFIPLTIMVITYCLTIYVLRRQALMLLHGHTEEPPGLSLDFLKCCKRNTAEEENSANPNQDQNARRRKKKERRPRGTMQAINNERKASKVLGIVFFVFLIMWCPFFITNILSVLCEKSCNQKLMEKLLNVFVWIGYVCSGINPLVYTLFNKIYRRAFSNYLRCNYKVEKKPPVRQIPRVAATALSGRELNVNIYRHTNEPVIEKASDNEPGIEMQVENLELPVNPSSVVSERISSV
Experimental: (§1) For receptor binding assays, stably expressing 5-HT1a, 1b, 1d and 2c receptors cells (HEK-293, rat cerebral cortex, CHO and HEK-293, respectively) were incubated with 0.3 or 1 nM of their respective radioligand (^3H-OH-DPAT, ^125I CYP, ^3H serotonin and ^3H-mesulergine) alone or in the presence of 1 nM to 10 μM of piromelatine. The bound radioligand was assessed. Non-specific binding was evaluated under the reaction contained with 8-OH-PTA, serotonin and RS-10221 (8-[5-(2,4-Dimethoxy-5-(4-trifluoromethylphenylsulphonamido)phenyl-5-oxopentyl]-1,3,8-triazaspiro[4.5]decane-2,4-dione hydrochloride).

[3] = test system: patients with early symptomatic Alzheimer's disease; experiment: computerized Neuropsychological Test Battery (cNTB), randomized placebo controlled study; type: in vivo, human
[4] = test system: patients with early symptomatic Alzheimer's disease; experiment: neuropsychiatric inventory (NPI), randomized placebo controlled study; type: in vivo, human; conditions: for NPI Improvement: 20 mg daily for 26 weeks
[5] = biological target: 5-HT-2b receptor (Homo sapiens, UniProt P41595); experiment: receptor binding assay; conditions: 5-HT2B
Sequence of 5-HT-2b receptor (P41595 whole entry): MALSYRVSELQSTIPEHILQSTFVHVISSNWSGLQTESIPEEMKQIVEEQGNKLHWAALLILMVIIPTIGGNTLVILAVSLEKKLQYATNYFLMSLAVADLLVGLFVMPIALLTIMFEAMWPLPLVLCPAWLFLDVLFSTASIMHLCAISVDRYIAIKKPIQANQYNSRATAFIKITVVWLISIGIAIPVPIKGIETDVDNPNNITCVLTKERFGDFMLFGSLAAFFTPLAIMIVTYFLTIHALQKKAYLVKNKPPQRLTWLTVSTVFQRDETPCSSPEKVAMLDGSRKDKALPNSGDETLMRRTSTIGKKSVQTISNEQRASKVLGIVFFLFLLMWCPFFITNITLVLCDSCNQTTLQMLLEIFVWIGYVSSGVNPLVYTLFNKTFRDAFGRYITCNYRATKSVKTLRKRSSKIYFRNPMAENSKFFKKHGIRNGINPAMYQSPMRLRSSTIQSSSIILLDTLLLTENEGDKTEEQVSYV

[6] = test system: patients with early symptomatic Alzheimer's disease; experiment: sleep quality index (PSQI), randomized placebo controlled study; type: in vivo, human; conditions: non-carriers (N = 23); 20 mg daily for 26 weeks
[7] = test system: patients with early symptomatic Alzheimer's disease; experiment: Alzheimer's Disease Assessment Scale cognitive subscale (ADAS-Cog14), randomized placebo controlled study; type: in vivo, human; parameters: key to ADAS-Cog14 Improvement: ns = non-significant effect; deter = deterioration compared to placebo
[8] = biological target: T2, 5-HT-1b receptor (Rattus norvegicus, UniProt P28564); experiment: receptor binding assay, radioligand 125I CYP, rat cerebral cortex; conditions: 5-HT1B
T2 construct: from tissue; host or cells: rat cerebral cortex
T2 sequence (P28564 whole entry): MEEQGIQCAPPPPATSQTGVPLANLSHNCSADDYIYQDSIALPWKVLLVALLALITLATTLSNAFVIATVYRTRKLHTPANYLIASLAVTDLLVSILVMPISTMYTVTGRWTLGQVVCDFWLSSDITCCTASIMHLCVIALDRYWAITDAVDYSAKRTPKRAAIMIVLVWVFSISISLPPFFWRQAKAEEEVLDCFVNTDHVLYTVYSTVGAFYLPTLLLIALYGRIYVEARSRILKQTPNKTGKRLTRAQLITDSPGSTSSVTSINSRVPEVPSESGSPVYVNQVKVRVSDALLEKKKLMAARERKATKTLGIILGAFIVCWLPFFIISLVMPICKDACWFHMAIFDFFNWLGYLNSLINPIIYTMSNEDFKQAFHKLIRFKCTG
Experimental: as §1

[9] = biological target: T3, 5-HT1a (Homo sapiens, UniProt P08908); experiment: receptor binding assay, radioligand 3H-OH-DPAT, HEK-293 cells; parameters: expressed in transfected cells; host or cells: HEK-293; conditions: 5-HT1A
T3 sequence (P08908 1-422): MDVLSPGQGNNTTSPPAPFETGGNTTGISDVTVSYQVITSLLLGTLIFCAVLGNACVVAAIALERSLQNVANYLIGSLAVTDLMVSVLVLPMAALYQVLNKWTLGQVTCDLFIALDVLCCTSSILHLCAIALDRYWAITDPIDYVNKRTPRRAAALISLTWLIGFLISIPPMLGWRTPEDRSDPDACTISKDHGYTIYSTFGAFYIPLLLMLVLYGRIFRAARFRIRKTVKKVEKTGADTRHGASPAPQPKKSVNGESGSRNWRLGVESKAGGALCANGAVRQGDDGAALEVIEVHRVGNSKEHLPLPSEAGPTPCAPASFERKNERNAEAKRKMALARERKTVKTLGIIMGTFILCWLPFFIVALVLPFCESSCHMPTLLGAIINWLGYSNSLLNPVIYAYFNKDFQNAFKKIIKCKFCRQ
Experimental: as §1

[10] = test system: patients with early symptomatic Alzheimer's disease; experiment: computerized Neuropsychological Test Battery (cNTB), randomized placebo controlled study; type: in vivo, human; parameters: key to cNTB Improvement: ns = non-significant effect; deter = deterioration compared to placebo; conditions: for cNTB: 5, 20 and 50 mg daily for 26 weeks, change from baseline
Experimental: DNA extraction and SNP genotyping were performed as follows: For 107 patients, whole blood was collected at the time of enrollment, and genomic DNA was extracted from peripheral lymphocytes using a commercial kit. Variant genotyping of a combined Whole Genome and Whole Exome sequencing, was performed. The detection of variants associated with the response of the treatment was performed through a genome wide association study (GWAS) analysis (which is a known case-control paradigm). […] The general case-control allelic test was performed through a Cochran-Armitage trend test. […] The stratification was assessed by a complete-linkage hierarchical clustering using the pairwise population concordance as a constraint. The SNP calling was done on the aligned BAM files using DRAGEN: […]

[11] = biological target: T3, 5-HT1a; experiment: functional assay, HTRF (cAMP or IP1); type: cell-based
Text: (§2) For the functional assay, Homogeneous Time Resolved Fluorescence (HTRF) was used to measure cAMP or IP1 as products of the functional agonist or antagonist binding of 5-HT1a, 2a,2b, 2c, 4e, 6, 7 to their respective ligand (8-OG-DPAT or serotonin). Cellular dielectric spectroscopy was used to measure impedance as the product of the functional agonist or antagonist binding of 5HT1b and determine their respective ligand (serotonin).

[12] = biological target: 5-HT-2a receptor (Homo sapiens, UniProt P28223); experiment: receptor binding assay; conditions: 5-HT2A
Sequence of 5-HT-2a receptor (P28223 whole entry): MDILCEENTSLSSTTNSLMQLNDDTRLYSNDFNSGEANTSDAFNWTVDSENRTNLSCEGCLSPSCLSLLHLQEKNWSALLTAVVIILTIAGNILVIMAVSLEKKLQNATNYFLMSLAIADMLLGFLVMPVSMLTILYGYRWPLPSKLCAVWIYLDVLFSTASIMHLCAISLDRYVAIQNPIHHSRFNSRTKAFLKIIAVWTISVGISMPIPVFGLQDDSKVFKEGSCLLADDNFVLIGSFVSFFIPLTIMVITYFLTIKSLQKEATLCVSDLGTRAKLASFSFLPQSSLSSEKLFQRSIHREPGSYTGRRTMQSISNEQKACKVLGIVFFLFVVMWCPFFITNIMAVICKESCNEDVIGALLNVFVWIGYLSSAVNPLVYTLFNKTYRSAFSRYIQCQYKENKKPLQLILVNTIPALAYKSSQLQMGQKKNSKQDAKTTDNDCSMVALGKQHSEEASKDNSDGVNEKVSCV

[13] = test system: 60 different ion channels and receptors of different neurotransmitters and hormones; experiment: full profile of binding parameters, 60 receptor assays; conditions: 10 μM; none of the 60 receptor assays significant
Experimental: A full profile of binding parameters to an additional 60 different ion channels and receptors of different neurotransmitters and hormones was performed (data not shown because none of the 60 receptor assays yielded a significant (>50%) inhibition by 10 μM of piromelatine).

[14] = biological target: 5HT1b (Homo sapiens, UniProt P28222); experiment: functional assay, cellular dielectric spectroscopy (impedance); type: cell-based
Sequence of 5HT1b (P28222 whole entry, species assumed): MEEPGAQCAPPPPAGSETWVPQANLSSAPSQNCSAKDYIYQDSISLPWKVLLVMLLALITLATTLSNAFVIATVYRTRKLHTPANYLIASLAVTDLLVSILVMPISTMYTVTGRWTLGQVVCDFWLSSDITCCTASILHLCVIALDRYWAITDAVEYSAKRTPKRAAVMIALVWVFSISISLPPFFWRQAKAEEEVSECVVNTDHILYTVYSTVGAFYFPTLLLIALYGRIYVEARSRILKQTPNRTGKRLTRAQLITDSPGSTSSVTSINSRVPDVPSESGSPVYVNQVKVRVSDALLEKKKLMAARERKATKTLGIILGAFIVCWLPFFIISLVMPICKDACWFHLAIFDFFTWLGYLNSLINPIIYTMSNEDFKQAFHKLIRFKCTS
Text: as §2

[15] = whole study, n=352, 5, 20, and 50 mg daily for 6 months
[16] = locus polymorphism carriers, 5, 20 and 50 mg, 26 weeks, N = 19, vs placebo
[17] = locus polymorphism non-carriers, 5, 20 and 50 mg, 26 weeks, N = 59, vs placebo

COc1ccc2[nH]cc(CCNC(=O)c3cc(=O)cco3)c2c1 [piromelatine, N-(2-(5-methoxy-1H-indol-3-yl)ethyl)-4-oxo-4H-pyran-2-carboxamide]
agonist activity [1]: moderate agonist activity
affinity in words [2]: low affinity
cNTB attention domain composite score ([3]; carriers, 20 mg): improved
global composite score of the cNTB, drug vs placebo [3, 15]: no statistically significant differences
NPI Improvement ([4]; carriers (N = 12)): yes
NPI aberrant movements ([4]; carriers, 20 mg): improvement
NPI Improvement ([4]; non-carriers (N = 23)): yes
affinity in words [5]: low affinity
PSQI Improvement [6]: yes
ADAS Cog14, Cohen's d vs placebo > 0.2 ([7]; carriers, 5 mg daily for 26 weeks): improvement
ADAS-Cog14 ([7]; locus polymorphism carriers, 5, 20 and 50 mg daily for 26 weeks, N = 19): 0.63*
ADAS-Cog14 Improvement [7, 16]: deter
ADAS-Cog14 Improvement [7, 17]: yes
ADAS-Cog14 Improvement ([7]; non-carriers (N = 23), 20 mg daily for 26 weeks): yes
ADAS Cog14, Cohen's d vs placebo > 0.20 ([7]; non-carriers, 5 mg daily for 26 weeks): no improvement
ADAS-Cog14, drug vs placebo [7, 15]: no statistically significant differences
affinity in words [8]: low affinity
affinity in words [9]: low affinity
cNTB Improvement ([10]; carriers (N = 12), 20 mg daily for 26 weeks): yes
cNTB attention domain composite score ([10]; carriers, 5 mg): improved
cNTB episodic memory domain composite score ([10]; carriers, 5 mg): improved
cNTB episodic memory domain composite score ([10]; carriers, 20 mg): improved
cNTB ([10]; locus polymorphism carriers, N = 19): 0.38*
cNTB Improvement [10, 16]: yes
cNTB ([10]; locus polymorphism non-carriers, N = 59): −0.04
cNTB Improvement [10, 17]: ns
agonist activity [11]: moderate agonist activity
affinity in words [12]: low affinity
inhibition [13]: ≤ 50%
agonist activity [14]: Low agonist activity

From patent US11840731B2, “Method for diagnosing and treating subjects having single nucleotide polymorphisms in chromosome 2, 2:107,510,000-107,540,000 locus” (NEURIM PHARMACEUTICALS (1991) LTD., priority 2021, dated 2023)
